The results in this text go back to USRE37410E, “Controlled local delivery of chemotherapeutic agents for treating solid tumors” (priority 1999, dated 2001).

SMILES strings stand for the structures.

Data set [1] can be described thus: In vitro release of paclitaxel from PCPP-SA (20:80) polymer discs. The class given is physicochemical. The method, then: Solid paclitaxel, obtained from Napro Biotherapeutics (Boulder, Colo.) or from the National Cancer Institute (Bethesda, Md.), was mixed with poly[bis(p-carboxyphenoxy)propane-sebacic acid] copolymer (PCPP-SA) (20:80) synthesized according to the method of Domb, A. J., and R. Langer (J. Polym. Sci. 25:3373-3386 (1987)), the teachings of which are incorporated herein by reference, to give a mixture containing 0, 20, 30, or 40% paclitaxel by weight. The paclitaxel-polymer mixture was dissolved in methylene chloride (Fluka, Switzerland) to give a 10% solution (w:v). The solvent was evaporated with a nitrogen stream to yield a dry powder. […]
The efficiency of the delivery of paclitaxel incorporated into a biodegradable polymer into the surrounding medium was assessed in vitro as follows. […]
Protocol. […] The releasing medium was replaced at specified times during the 45-day (1000 hour) incubation period, and the recovered solutions were analyzed by scintillation counting and high pressure liquid chromatography (HPLC). […] Radioactive analysis to quantify the amount of paclitaxel release was done by mixing 200 μl of the releasing buffer solution with 4 ml of a scintillation mixture composed of toluene and Lumax (Landgraat, The Netherlands) scintillation mixture in a 2:1 volume ratio. This solution was counted on a 1211 Rack β-liquid scintillation counter (LKB-Wallac OY, Finland). […]

The next data set deals with U87. The data set is classed as cell-based. The note with it: Homo sapiens, U-87 MG; continuous 6-8 days exposure; read-out: LD90 (the source's name). The procedure:
(§1) Cell culture. Tumor sensitivity to paclitaxel was measured by the clonogenic assay described by Rosenblum, et al., Cancer 41:2305-2314 (1978) and Salcman, et al., Neurosurgery 29:526-531 (1991) with rat glioma (9L, F98), human glioma (H80, U87, U373), and human medulloblastoma (D324) cell lines. Cells were grown and propagated in minimum essential medium (MEM) supplemented with 10% fetal bovine serum, L-glutamine, penicillin, and streptomycin and incubated at 37° C. in an atmosphere containing 5% CO2. At the start of each assay, 600 tumor cells in 2 ml of medium were plated on Falcon 6-well tissue-culture plates (Becton-Dickenson, Lincoln Park, N.J.). After incubating for 24 h, the medium was removed from the places and replaced with 2 ml of medium containing paclitaxel and 0.1% dimethylsulfoxide (DMSO). The treatment solutions were prepared as described by Roytta et al., Prostate 11:95-106 (1987). The paclitaxel treatment solution was then either replaced with fresh paclitaxel-free media containing 0.1% DMSO after 1 or 24 h or was left on the places for the 6- to 8-day incubation period. […] The colonies on each plate were counted and the result was expressed as a percentage of the colonies formed on control plates not exposed to paclitaxel. […] Graphs were prepared and analyzed using Cricket Graph v. […]

Another data set relates to H80. The data set is classed as cell-based. To be noted: Homo sapiens; continuous 6-8 days exposure; read-out: LD90 (the source's name). The procedure: as §1

For `CC(=O)O[C@H]1C(=O)[C@@]2(C)[C@H]([C@H](OC(=O)c3ccccc3)[C@]3(O)C[C@H](OC(=O)[C@H](O)[C@@H](NC(=O)c4ccccc4)c4ccccc4)C(C)=C1C3(C)C)[C@]1(OC(C)=O)CO[C@@H]1C[C@@H]2O` [paclitaxel], in data set [1] (each of the polymer loadings, phosphate buffer pH 7.4, 37° C), the release profile result is “released biphasically from the polymer, with an initial burst phase followed by a slower constant release phase”. The “identity of released paclitaxel by HPLC” value in data set [1] (released into buffer) is reported as “corresponded with intact paclitaxel”. Also, the results for the IC90 in the data set with U87 and in the data set on H80 were 9.1 nM and 19 nM, respectively.
